Data as given in patent US20200129524A1, “PERSONALIZED CONTRACEPTIVE FORMULATIONS” (Agile Therapeutics, Inc., priority 2017, published 2020).

Test system: healthy women
Assay: Statistical (quadratic regression) analysis of LNG required dose with confidence limits
Format: in vivo
Parameters: dose required: unit: μg
Settings: for Daily LNG Required Dose, 1.5% Pregnancy Rate Dose / Daily LNG Required Dose, 3% Pregnancy Rate Dose: EE 30 μg; for level of LNG equivalent: women with body weight of over 200 pounds, 30 μg EE per day
Description: Z represents the applicable coefficient to obtain a desired level of confidence (e.g. a coefficient of two would imply a 95.5% confidence level and a coefficient of three would imply a 99.7% confidence level). The other variables are the same as indicated above. For example, the dose required for a 150 pound person assuming a 95% confidence level would be determined as follows: […]
Table 7 and FIG. 6 summarize the maximum and the minimum dose of levonorgestrel levels required at the 95.5% level of confidence (two standard deviation units, i.e., two σ) for varying woman BMI categories.
Table 7a and FIG. 6a summarize the maximum and the minimum dose of levonorgestrel levels required at the 68% level of confidence (one standard deviation unit, i.e., one σ) for varying woman BMI categories.
A review of the data points associated with Tables 4 and 5 reveal again a relationship which could be linear or quadratic. Again, since the data has substantial variability in the individual points a statistical analysis of the data was performed. The applicable linear and quadratic equations had correlation coefficients R2 of 0.73 for both 1.5 and 3% pregnancy rates. The standard error for the 1.5% pregnancy rate (linear VS quadratic) as well as the 3% pregnancy rate (linear versus quadratic) was within 10 micrograms of each other. […] We chose to draw FIGS. 4a and 4b based on the quadratic equations, so as to have an easier comparison to the corresponding body weight lines in FIGS. 3a and 3b.
As indicated above the implied equation is shown below, where the symbols Y and X are the same as presented above. The correlation coefficient R2 is 0.73 and the standard error 94.3 micrograms.
The correlation coefficient, R2 is 0.73 and the standard error 46.8. The above equation can be modified to provide a 95.5% confidence level as follows
Table 7 and FIG. 6 summarize the maximum and minimum dose of levonorgestrel levels required at the 95% confidence for varying woman BMI categories as determined from the modified equations described above.
Therefore another practical approach is to treat all women with body weight of over 200 pounds with the same formulations. For example for women co-administered 30 μg EE per day, the level of LNG equivalent would be 350 μg per day (for the 1.5% pregnancy level), and 200 μg per day (for the 3% pregnancy level). An intermediate level of 260 μg per day can also be prepared.

[1] = BMI >17.5 < 22.5, 68% confidence level, 30 μg EE
[2] = BMI >17.5 < 22.5, 95.5% confidence level, 30 μg EE
[3] = BMI >22.5 < 27.5, 68% confidence level, 30 μg EE
[4] = BMI >22.5 < 27.5, 95.5% confidence level, 30 μg EE
[5] = BMI >27.5 < 32.5, 68% confidence level, 30 μg EE
[6] = BMI >27.5 < 32.5, 95.5% confidence level, 30 μg EE
[7] = BMI >32.5 < 37.5, 68% confidence level, 30 μg EE
[8] = BMI >32.5 < 37.5, 95.5% confidence level, 30 μg EE
[9] = BMI >37.5 < 42.5, 68% confidence level, 30 μg EE
[10] = BMI >37.5 < 42.5, 95.5% confidence level, 30 μg EE
[11] = BMI >42.5 < 47.5, 68% confidence level, 30 μg EE
[12] = BMI >42.5 < 47.5, 95.5% confidence level, 30 μg EE
[13] = BMI >47.5 < 52.5, 68% confidence level, 30 μg EE
[14] = BMI >47.5 < 52.5, 95.5% confidence level, 30 μg EE
[15] = weight 90 to ≤120, 68% confidence level
[16] = weight 90 to ≤120, 95.5% confidence level
[17] = weight 120 to ≤150, 68% confidence level
[18] = weight 120 to ≤150, 95.5% confidence level
[19] = weight 150 to ≤180, 68% confidence level
[20] = weight 150 to ≤180, 95.5% confidence level
[21] = weight 180 to ≤210, 68% confidence level
[22] = weight 180 to ≤210, 95.5% confidence level
[23] = weight 210 to ≤240, 68% confidence level
[24] = weight 210 to ≤240, 95.5% confidence level
[25] = weight 240 to ≤270, 68% confidence level
[26] = weight 240 to ≤270, 95.5% confidence level
[27] = weight 270+, 68% confidence level
[28] = weight 270+, 95.5% confidence level

C#C[C@]1(O)CC[C@H]2[C@@H]3CCC4=CC(=O)CC[C@@H]4[C@H]3CC[C@@]21CC [LNG, levonorgestrel]
dose required (25 BMI woman, 95% confidence level, 3% pregnancy rate): 26
LNG daily dosage, high boundary value (27.5 BMI woman, 95.5% confidence, pregnancy rate of 1.5%): 430 microgram
daily dose, low boundary value (150 pound person, 95.5% confidence, 3 pregnancies per 100 woman years, 30 μg EE): 62.4 µg
daily dose, high boundary value (150 pound person, 95.5% confidence, pregnancy rate of 1.5%, 30 μg EE): 302 µg
LNG Daily Required Dose, 1.5% Pregnancy Rate [1]: 283 µg
LNG Daily Required Dose, 3% Pregnancy Rate [1]: 47 µg
LNG Daily Required Dose, 1.5% Pregnancy Rate [2]: 378 µg
LNG Daily Required Dose, 3% Pregnancy Rate [2]: 0.1 µg
LNG Daily Required Dose, 1.5% Pregnancy Rate [3]: 335 µg
LNG Daily Required Dose, 3% Pregnancy Rate [3]: 72 µg
LNG Daily Required Dose, 1.5% Pregnancy Rate [4]: 430 µg
LNG Daily Required Dose, 3% Pregnancy Rate [4]: 26 µg
LNG Daily Required Dose, 1.5% Pregnancy Rate [5]: 390 µg
LNG Daily Required Dose, 3% Pregnancy Rate [5]: 99 µg
LNG Daily Required Dose, 1.5% Pregnancy Rate [6]: 484 µg
LNG Daily Required Dose, 3% Pregnancy Rate [6]: 52 µg
LNG Daily Required Dose, 1.5% Pregnancy Rate [7]: 447 µg
LNG Daily Required Dose, 3% Pregnancy Rate [7]: 127 µg
LNG Daily Required Dose, 1.5% Pregnancy Rate [8]: 541 µg
LNG Daily Required Dose, 3% Pregnancy Rate [8]: 80 µg
LNG Daily Required Dose, 1.5% Pregnancy Rate [9]: 507 µg
LNG Daily Required Dose, 3% Pregnancy Rate [9]: 157 µg
LNG Daily Required Dose, 1.5% Pregnancy Rate [10]: 601 µg
LNG Daily Required Dose, 3% Pregnancy Rate [10]: 110 µg
LNG Daily Required Dose, 1.5% Pregnancy Rate [11]: 569 µg
LNG Daily Required Dose, 3% Pregnancy Rate [11]: 187 µg
LNG Daily Required Dose, 1.5% Pregnancy Rate [12]: 663 µg
LNG Daily Required Dose, 3% Pregnancy Rate [12]: 140 µg
LNG Daily Required Dose, 1.5% Pregnancy Rate [13]: 633 µg
LNG Daily Required Dose, 3% Pregnancy Rate [13]: 219 µg
LNG Daily Required Dose, 1.5% Pregnancy Rate [14]: 728 µg
LNG Daily Required Dose, 3% Pregnancy Rate [14]: 172 µg
Daily LNG Required Dose, 1.5% Pregnancy Rate Dose [15]: 171 µg/day
Daily LNG Required Dose, 3% Pregnancy Rate Dose [15]: 41 µg/day
Daily LNG Required Dose, 1.5% Pregnancy Rate Dose [16]: 215 µg/day
Daily LNG Required Dose, 3% Pregnancy Rate Dose [16]: 19 µg/day
Daily LNG Required Dose, 1.5% Pregnancy Rate Dose [17]: 258 µg/day
Daily LNG Required Dose, 3% Pregnancy Rate Dose [17]: 84 µg/day
Daily LNG Required Dose, 1.5% Pregnancy Rate Dose [18]: 302 µg/day
Daily LNG Required Dose, 3% Pregnancy Rate Dose [18]: 62 µg/day
Daily LNG Required Dose, 1.5% Pregnancy Rate Dose [19]: 331 µg/day
Daily LNG Required Dose, 3% Pregnancy Rate Dose [19]: 120 µg/day
Daily LNG Required Dose, 1.5% Pregnancy Rate Dose [20]: 375 µg/day
Daily LNG Required Dose, 3% Pregnancy Rate Dose [20]: 98 µg/day
Daily LNG Required Dose, 1.5% Pregnancy Rate Dose [21]: 389 µg/day
Daily LNG Required Dose, 3% Pregnancy Rate Dose [21]: 148 µg/day
Daily LNG Required Dose, 1.5% Pregnancy Rate Dose [22]: 433 µg/day
Daily LNG Required Dose, 3% Pregnancy Rate Dose [22]: 126 µg/day
Daily LNG Required Dose, 1.5% Pregnancy Rate Dose [23]: 432 µg/day
Daily LNG Required Dose, 3% Pregnancy Rate Dose [23]: 169 µg/day
Daily LNG Required Dose, 1.5% Pregnancy Rate Dose [24]: 476 µg/day
Daily LNG Required Dose, 3% Pregnancy Rate Dose [24]: 147 µg/day
Daily LNG Required Dose, 1.5% Pregnancy Rate Dose [25]: 459 µg/day
Daily LNG Required Dose, 3% Pregnancy Rate Dose [25]: 183 µg/day
Daily LNG Required Dose, 1.5% Pregnancy Rate Dose [26]: 503 µg/day
Daily LNG Required Dose, 3% Pregnancy Rate Dose [26]: 161 µg/day
Daily LNG Required Dose, 1.5% Pregnancy Rate Dose [27]: 472 µg/day
Daily LNG Required Dose, 3% Pregnancy Rate Dose [27]: 189 µg/day
Daily LNG Required Dose, 1.5% Pregnancy Rate Dose [28]: 516 µg/day
Daily LNG Required Dose, 3% Pregnancy Rate Dose [28]: 167 µg/day
level of LNG equivalent (1.5% pregnancy level): 350 μg per day
level of LNG equivalent (3% pregnancy level): 200 μg per day
